Consider 28 compounds from ChEMBL document CHEMBL1137267, “Novel aminobenzimidazoles as selective MCH-R1 antagonists for the treatment of metabolic diseases” (Bioorg Med Chem Lett, 2006).

Activity calls are given as the source filed them. The rule behind the calls is not given here.

The target in series [1] is T1, Melanin-concentrating hormone receptor 1 (Homo sapiens, UniProt Q99705). The series can be described thus: Binding activity against human MCH-R1.
Series [2] addresses Melanin-concentrating hormone receptor 2 (Homo sapiens) (UniProt Q969V1). The series can be described thus: Binding activity against human MCH-R2.
Series [3] concerns Mus musculus. As to the kind of experiment: Inhibition of ex vivo MCH-ADO binding in mice 24 hours after 30 mg/kg peroral dose. The series is classed as functional. The note with it: route oral.
A short description of series [4]: AUC in rats following 10 mg/kg peroral dose. The class given is ADME, organism-based. Also on record: dose 10 mg/kg, route oral. The note with it: rat, plasma, po.
The test system of series [5] is Mus musculus. The series can be described thus: Inhibition of ex vivo MCH-ADO binding in mice 6 hours after 30mg/kg peroral dose. Particulars: po. The class given is functional.
The species entered for series [6] is Mus musculus. As to the kind of experiment: Inhibition of cumulative food intake by fasted DIO mice at 2 hours. The series is classed as functional.
The species named for series [7] is Mus musculus. The series can be described thus: Inhibition of cumulative food intake by fasted DIO mice at 24 hours. The class given is functional.
For series [8], the target named is T1, Melanin-concentrating hormone receptor 1. The series can be described thus: Inhibition of MCH-mediated calcium influx into CHO cells expressing human MCH-R1by FLIPR assay. The class given is functional, cell-based.
For series [9], the species on record is Mus musculus. As to the kind of experiment: Inhibition of cumulative food intake by fasted DIO mice at 6 hours. The class given is functional.
For series [10], the species on record is Mus musculus. As to the kind of experiment: Inhibition of cumulative food intake by fasted DIO mice at 4 hours. The series is classed as functional.

T1 sequence (Q99705 whole entry): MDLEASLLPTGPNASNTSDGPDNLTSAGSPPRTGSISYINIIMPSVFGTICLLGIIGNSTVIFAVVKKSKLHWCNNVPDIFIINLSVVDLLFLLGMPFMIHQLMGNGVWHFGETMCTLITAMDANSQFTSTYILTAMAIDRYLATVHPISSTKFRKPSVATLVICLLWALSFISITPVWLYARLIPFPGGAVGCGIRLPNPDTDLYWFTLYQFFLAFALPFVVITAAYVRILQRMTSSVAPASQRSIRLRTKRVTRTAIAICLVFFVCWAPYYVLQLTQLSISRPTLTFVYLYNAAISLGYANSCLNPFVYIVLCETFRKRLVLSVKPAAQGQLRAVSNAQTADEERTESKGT
Sequence of Melanin-concentrating hormone receptor 2 (Homo sapiens) (Q969V1 whole entry): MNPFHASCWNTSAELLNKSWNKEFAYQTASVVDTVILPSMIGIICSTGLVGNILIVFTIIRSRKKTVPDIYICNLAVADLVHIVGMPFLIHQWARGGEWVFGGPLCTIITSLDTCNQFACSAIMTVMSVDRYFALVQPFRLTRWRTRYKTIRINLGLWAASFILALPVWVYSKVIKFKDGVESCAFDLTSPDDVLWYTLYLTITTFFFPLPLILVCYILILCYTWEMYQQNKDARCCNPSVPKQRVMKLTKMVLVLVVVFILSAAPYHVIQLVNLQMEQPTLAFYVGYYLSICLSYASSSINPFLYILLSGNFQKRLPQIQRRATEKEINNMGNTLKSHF

The compound `CO/N=C/c1cccc([C@]23CC[C@@H](N(CCCN4CCN(C)CC4)c4nc5cc(F)c(F)cc5[nH]4)C[C@H]2C3)c1` showed a Ki in [1] of 28.2 nM. In addition, the inhibition result in series [2] is “inactive”.
The compound `CN1CCN(CCCN(c2nc3cc(F)c(F)cc3[nH]2)[C@@H]2CC[C@]3(c4cccc(CN5CC[C@H](O)C5)c4)C[C@@H]3C2)CC1` registered a Ki in [1] of 441 nM. Moreover, the inhibition result in [2] is “inactive”.
Take `CN1CCN(CCCN(c2nc3cc(F)c(F)cc3[nH]2)[C@@H]2CC[C@]3(c4cccc(C#N)c4)C[C@H]23)CC1`: the affinity in [1] corresponds to a Ki of 20.7 nM. Besides, the inhibition result in series [2] is “inactive”. The values for the inhibition in vivo at 30 mg/kg in the series on Mus musculus [3] and with Mus musculus [5] were 33% and 75%, respectively. This compound registered an AUC in series [4] of 1490 ng·h/mL.
In turn, `CN1CCN(CCCN(c2nc3cc(Cl)c(F)cc3[nH]2)[C@@H]2CC[C@]3(c4cccc(C#N)c4)C[C@H]23)CC1` showed a Ki in series [1] of 5.6 nM. For the same compound, in series [4], the exposure (AUC) was 1920 ng·h/mL.
As to `CN1CCN(CCCN(c2nc3cc(F)c(Cl)cc3[nH]2)[C@@H]2CC[C@]3(c4cccc(C#N)c4)C[C@H]23)CC1`, the Inhibition in the series listed under Mus musculus [6] turned out to be 13%; in the series listed under Mus musculus [7] it was 5%; in the series listed under Mus musculus [9], 21%; in the series listed under Mus musculus [10], 19%. For the same compound, in series [8], the Kb came out at 10 nM. Further, the inhibition entry in series [2] is “inactive”. For the same compound, the inhibition in vivo at 30 mg/kg is 77% in the series on Mus musculus [3] and 92% with Mus musculus [5].
In the case of `CN1CCN(CCCN(c2nc3cc(F)c(C(F)(F)F)cc3[nH]2)[C@@H]2CC[C@]3(c4ccc(C#N)cc4)C[C@H]23)CC1`, the Kb in [8] was 43 nM. In addition, affinity in series [1] was put at a Ki of 8.6 nM. In addition, the values for the inhibition in vivo at 30 mg/kg in the series with Mus musculus [3] and in the series on Mus musculus [5] were 94% and 100%, respectively. Besides, in series [4], the AUC turned out to be 2800 ng·h/mL.
Consider `CN1CCN(CCCN(c2nc3cc(Cl)c(F)cc3[nH]2)[C@@H]2CC[C@]3(c4ccc(C#N)cc4)C[C@H]23)CC1`, for which affinity in series [1] was put at a Ki of 4.9 nM.
As to `CN1CCN(CCCN(c2nc3cc(F)c(Cl)cc3[nH]2)[C@@H]2CC[C@]3(c4ccc(C#N)cc4)C[C@H]23)CC1`, the inhibition result in [2] is “inactive”. For the same compound, the inhibition in vivo at 30 mg/kg with Mus musculus [3] was 81%; in the series with Mus musculus [5], 100%.
Consider `CN1CCN(CCCN(c2nc3cc(Cl)c(Cl)cc3[nH]2)[C@@H]2CC[C@]3(c4cccc(C#N)c4)C[C@H]23)CC1`, for which the Kb in series [8] amounted to 20 nM. In [1], the affinity, expressed as Ki, was 6.8 nM. In series [2], the inhibition result was “inactive”. The values for the inhibition in vivo at 30 mg/kg with Mus musculus [3] and in the series on Mus musculus [5] were 51% and 97%, respectively.
Consider `CN1CCN(CCCN(c2nc3cc(Cl)c(Cl)cc3[nH]2)[C@@H]2CC[C@]3(c4ccc(C#N)cc4)C[C@H]23)CC1`, for which the Ki in [1] was found to be 11.4 nM. Further, in series [2], the inhibition entry is “inactive”.
Consider `CN1CCN(CCCN(c2nc3cc(F)c(F)cc3[nH]2)[C@@H]2CC[C@]3(c4cccc(CN5CCC[C@H]5CO)c4)C[C@@H]3C2)CC1`, for which the inhibition entry in series [2] was “inactive”.
In series [1], `CN1CCN(CCCN(c2nc3cc(F)c(F)cc3[nH]2)[C@@H]2CCC3(c4cccc(C=O)c4)C[C@@H]3C2)CC1` (single isomer, unassigned) showed a Ki of 16.3 nM. In series [2], the inhibition entry was “inactive”.
In the case of `CN1CCN(CCCN(c2nc3cc(Cl)c(Cl)cc3[nH]2)[C@@H]2CCC3(c4cccc(C#N)c4)C[C@@H]3C2)CC1` (single isomer, unassigned), the Inhibition in the series listed under Mus musculus [6] turned out to be 12%; in the series listed under Mus musculus [7] it was 9%; in the series listed under Mus musculus [9], 18%; in the series filed under Mus musculus [10] it was 19%. For the same compound, in series [2], the inhibition result is “inactive”. Further, the results for the inhibition in vivo at 30 mg/kg with Mus musculus [3] and with Mus musculus [5] were 97% and 81%, respectively. The compound further showed an AUC in series [4] of 965 ng·h/mL.
For the compound `CN1CCN(CCCN(c2nc3cc(Cl)c(Cl)cc3[nH]2)[C@@H]2CCC3(c4cccc(C=O)c4)C[C@@H]3C2)CC1` (single isomer, unassigned), affinity in series [1] was put at a Ki of 13.7 nM. Further, the inhibition result in series [2] was “inactive”.
The like results for `CN(C)Cc1cccc(C23CC[C@@H](N(CCCN4CCN(C)CC4)c4nc5cc(F)c(F)cc5[nH]4)C[C@H]2C3)c1` (single isomer, unassigned) were, in that order, 328 nM and “inactive”.
With `CN1CCN(CCCN(c2nc3cc(F)c(F)cc3[nH]2)[C@@H]2CCC3(c4cccc(C#N)c4)C[C@@H]3C2)CC1` (single isomer, unassigned), the inhibition result in series [2] was “inactive”. Besides, the inhibition in vivo at 30 mg/kg in the series with Mus musculus [3] came out at 17%; with Mus musculus [5], 37%. Also, the area under the curve (AUC) in [4] worked out at 293 ng·h/mL.
Compound `CS(=O)(=O)N1CCC(CN(c2nc3cc(F)c(Cl)cc3[nH]2)[C@@H]2CCC3(c4cccc(C#N)c4)C[C@@H]3C2)CC1` (single isomer, unassigned) displayed a Ki in series [1] of 6.7 nM. For the same compound, the inhibition entry in series [2] was “inactive”.
Regarding `CS(=O)(=O)N1CCC(CN(c2nc3cc(F)c(F)cc3[nH]2)[C@@H]2CCC3(c4cccc(C#N)c4)C[C@@H]3C2)CC1` (single isomer, unassigned), the Ki in series [1] worked out at 27 nM. Besides, the inhibition result in [2] is “inactive”. For the same compound, the inhibition in vivo at 30 mg/kg with Mus musculus [3] and with Mus musculus [5] was 0% each time. For the same compound, the AUC in [4] is 350 ng·h/mL.
`CS(=O)(=O)N1CCC(CN(c2nc3cc(Cl)c(Cl)cc3[nH]2)[C@@H]2CCC3(c4cccc(C#N)c4)C[C@@H]3C2)CC1` (single isomer, unassigned): the Ki in series [1] stood at 1.5 nM. In addition, the inhibition entry in series [2] was “inactive”. Also, the inhibition in vivo at 30 mg/kg in the series with Mus musculus [3] is 0%; in the series with Mus musculus [5], 12%.
As for `CN1CCN(CCCN(c2nc3cc(F)c(F)cc3[nH]2)[C@@H]2CCC3(c4cccc(CN5CCOCC5)c4)C[C@@H]3C2)CC1` (single isomer, unassigned), the Ki in series [1] is 21.3 nM. Besides, the inhibition entry in series [2] was “inactive”.
In the same order, the values of `CN1CCN(CCCN(c2nc3cc(Cl)c(F)cc3[nH]2)[C@@H]2CCC3(c4cccc(C#N)c4)C[C@@H]3C2)CC1` (single isomer, unassigned) are 6.2 nM and “inactive”.
`CN(C)Cc1cccc(C23CC[C@@H](N(CCCN4CCN(C)CC4)c4nc5cc(Cl)c(Cl)cc5[nH]4)C[C@H]2C3)c1` (single isomer, unassigned) yielded a Ki in series [1] of 4.9 nM. For the same compound, the inhibition entry in series [2] was “inactive”.
In the case of `CN1CCN(CCCN(c2nc3cc(F)c(F)cc3[nH]2)[C@@H]2CCC3(c4cccc(CN5CCCC5)c4)C[C@@H]3C2)CC1` (single isomer, unassigned), the Ki in series [1] was 25.7 nM. For the same compound, in series [2], the inhibition entry is “inactive”.
In the same order, the values of `CN1CCN(CCCN(c2nc3cc(Cl)c(Cl)cc3[nH]2)[C@@H]2CCC3(c4cccc(CN5CCOCC5)c4)C[C@@H]3C2)CC1` (single isomer, unassigned) are 14.2 nM and “inactive”.
In the same order, the values of `CC(C)(C)OC(=O)N1CCC(CN(c2nc3cc(Cl)c(Cl)cc3[nH]2)[C@@H]2CCC3(c4cccc(C#N)c4)C[C@@H]3C2)CC1` (single isomer, unassigned) are 1140 nM and “inactive”.
As for `CN1CCN(CCCN(c2nc3cc(F)c(F)cc3[nH]2)[C@@H]2CCC3(c4cccc(CN5CCCCC5)c4)C[C@@H]3C2)CC1` (single isomer, unassigned), the inhibition result in series [2] is “inactive”.
The same measure, in the same setting: with `CN1CCN(CCCN(c2nc3cc(F)c(F)cc3[nH]2)[C@@H]2CCC3(c4cccc(CN5CCN(C)CC5)c4)C[C@@H]3C2)CC1` (single isomer, unassigned) the entry was “inactive”.
Same read-out and setting: the value for `CN1CCN(CCCN(c2nc3cc(F)c(F)cc3[nH]2)[C@@H]2CCC3(c4cccc(CO)c4)C[C@@H]3C2)CC1` (single isomer, unassigned) was “inactive”.

One may read the Ki as a measure of affinity in units of concentration, obtained from inhibition or displacement. The term inhibition in vivo denotes the change of the read-out against control, counted positive when it falls. A higher inhibition in vivo goes with a response far below the control. What is called AUC is concentration integrated over time. A word on the Inhibition: it is the share of the control response that was lost under treatment. Low readings indicate a weak effect, high ones a strong effect.
